Results from patent publication US20260132164A1, “PNU ANTHRACYCLINE DERIVATIVES AND METHODS OF USE THEREOF” (Merck Sharp & Dohme LLC, priority 2022, published 2026).

Tested on: BxPC3
Assay: CellTiter-Glo 2.0 Cytotoxicity Assay
Assay type: cell-based
Conditions: compound added day 1, read on day 4 or 5, 3000 cells/well
[1] = Homo sapiens, BXPC-3, CellTiter-Glo 2.0 luminescence

Row | Compound | EC50 [1] | EC50 (CellTiter-Glo 2.0 luminescence)
1 | COc1cccc2c1C(=O)c1c(O)c3c(c(O)c1C2=O)C[C@@](O)(C(=O)NCCN(C)C(=O)C1CCNC1)C[C@@H]3O[C@H]1C[C@H]2[C@H](O[C@@H]3[C@@H](OC)OCCN32)[C@H](C)O1 (single isomer, unassigned) [Compound 49] | 31 nM | 
2 | COc1cccc2c1C(=O)c1c(O)c3c(c(O)c1C2=O)C[C@@](O)(C(=O)NCCN(C)C(=O)C1CCNC1)C[C@@H]3O[C@H]1C[C@H]2[C@H](O[C@@H]3[C@@H](OC)OCCN32)[C@H](C)O1 (single isomer, unassigned) [Compound 50] |  | 20 nM
3 | COc1cccc2c1C(=O)c1c(O)c3c(c(O)c1C2=O)C[C@@](O)(C(=O)NCc1cccc(N)c1)C[C@@H]3O[C@H]1C[C@H]2[C@H](O[C@@H]3[C@@H](OC)OCCN32)[C@H](C)O1 [Compound 1, (2S,4S)—N-(3-aminobenzyl)-2,5,12-trihydroxy-7-methoxy-4-(((1S,3R,4aS,9S,9aR,10aS)-9-methoxy-1-methyloctahydro-1H-pyrano[4′,3′:4,5]oxazolo[2,3-c][1,4]oxazin-3-yl)oxy)-6,11-dioxo-1,2,3,4,6,11-hexahydrotetracene-2-carboxamide] | 0.08 nM | 
4 | COc1cccc2c1C(=O)c1c(O)c3c(c(O)c1C2=O)C[C@@](O)(C(=O)N1CC(CN)C1)C[C@@H]3O[C@H]1C[C@H]2[C@H](O[C@@H]3[C@@H](OC)OCCN32)[C@H](C)O1 [Compound 2] | 22 nM | 
5 | COc1cccc2c1C(=O)c1c(O)c3c(c(O)c1C2=O)C[C@@](O)(C(=O)NCCNC(=O)[C@@H]1CCCN1)C[C@@H]3O[C@H]1C[C@H]2[C@H](O[C@@H]3[C@@H](OC)OCCN32)[C@H](C)O1 [Compound 3] | 13 nM | 
6 | COc1cccc2c1C(=O)c1c(O)c3c(c(O)c1C2=O)C[C@@](O)(C(=O)NCCNC(=O)CN)C[C@@H]3O[C@H]1C[C@H]2[C@H](O[C@@H]3[C@@H](OC)OCCN32)[C@H](C)O1 [Compound 4] | 13 nM | 
7 | COc1cccc2c1C(=O)c1c(O)c3c(c(O)c1C2=O)C[C@@](O)(C(=O)NCCNC(=O)NN)C[C@@H]3O[C@H]1C[C@H]2[C@H](O[C@@H]3[C@@H](OC)OCCN32)[C@H](C)O1 [Compound 5] | 2.8 nM | 
8 | COc1cccc2c1C(=O)c1c(O)c3c(c(O)c1C2=O)C[C@@](O)(C(=O)N1CC(CNC(=O)[C@H](C)N)C1)C[C@@H]3O[C@H]1C[C@H]2[C@H](O[C@@H]3[C@@H](OC)OCCN32)[C@H](C)O1 [Compound 6] | 8.6 nM | 
9 | COc1cccc2c1C(=O)c1c(O)c3c(c(O)c1C2=O)C[C@@](O)(C(=O)NCCNC(=O)[C@H](C)N)C[C@@H]3O[C@H]1C[C@H]2[C@H](O[C@@H]3[C@@H](OC)OCCN32)[C@H](C)O1 [Compound 7] | 13 nM | 
10 | COc1cccc2c1C(=O)c1c(O)c3c(c(O)c1C2=O)C[C@@](O)(C(=O)NCCCNCCCNC(=O)CN)C[C@@H]3O[C@H]1C[C@H]2[C@H](O[C@@H]3[C@@H](OC)OCCN32)[C@H](C)O1 [Compound 8] | 48 nM | 
11 | CNCCNC(=O)[C@]1(O)Cc2c(O)c3c(c(O)c2[C@@H](O[C@H]2C[C@H]4[C@H](O[C@@H]5[C@@H](OC)OCCN54)[C@H](C)O2)C1)C(=O)c1c(OC)cccc1C3=O [Compound 9] | 17 nM | 
12 | COc1cccc2c1C(=O)c1c(O)c3c(c(O)c1C2=O)C[C@@](O)(C(=O)N1CC(CN2CC(N)C2)C1)C[C@@H]3O[C@H]1C[C@H]2[C@H](O[C@@H]3[C@@H](OC)OCCN32)[C@H](C)O1 [Compound 10] | 124 nM | 
13 | COc1cccc2c1C(=O)c1c(O)c3c(c(O)c1C2=O)C[C@@](O)(C(=O)N1CC(CN2CC(NC(=O)[C@H](C)N)C2)C1)C[C@@H]3O[C@H]1C[C@H]2[C@H](O[C@@H]3[C@@H](OC)OCCN32)[C@H](C)O1 [Compound 11] | 822 nM | 
14 | COc1cccc2c1C(=O)c1c(O)c3c(c(O)c1C2=O)C[C@@](O)(C(=O)NC1CCNC1)C[C@@H]3O[C@H]1C[C@H]2[C@H](O[C@@H]3[C@@H](OC)OCCN32)[C@H](C)O1 (stereo partly shown) [Compound 12] | 7.7 nM | 
15 | COc1cccc2c1C(=O)c1c(O)c3c(c(O)c1C2=O)C[C@@](O)(C(=O)N(C)CCN)C[C@@H]3O[C@H]1C[C@H]2[C@H](O[C@@H]3[C@@H](OC)OCCN32)[C@H](C)O1 [Compound 13] | 5.4 nM | 
16 | COc1cccc2c1C(=O)c1c(O)c3c(c(O)c1C2=O)C[C@@](O)(C(=O)NCCCN(C)CCCN)C[C@@H]3O[C@H]1C[C@H]2[C@H](O[C@@H]3[C@@H](OC)OCCN32)[C@H](C)O1 [Compound 14] | 11 nM | 
17 | COc1cccc2c1C(=O)c1c(O)c3c(c(O)c1C2=O)C[C@@](O)(C(=O)NCCN1CCC(N)C1=O)C[C@@H]3O[C@H]1C[C@H]2[C@H](O[C@@H]3[C@@H](OC)OCCN32)[C@H](C)O1 (stereo partly shown) [Compound 15] | 64 nM | 
18 | COc1cccc2c1C(=O)c1c(O)c3c(c(O)c1C2=O)C[C@@](O)(C(=O)NC1CNCC1(F)F)C[C@@H]3O[C@H]1C[C@H]2[C@H](O[C@@H]3[C@@H](OC)OCCN32)[C@H](C)O1 (stereo partly shown) [Compound 16] |  | 24 nM
19 | COc1cccc2c1C(=O)c1c(O)c3c(c(O)c1C2=O)C[C@@](O)(C(=O)NC1CNCC1(F)F)C[C@@H]3O[C@H]1C[C@H]2[C@H](O[C@@H]3[C@@H](OC)OCCN32)[C@H](C)O1 (stereo partly shown) [Compound 17] |  | 10.7 nM
20 | COc1cccc2c1C(=O)c1c(O)c3c(c(O)c1C2=O)C[C@@](O)(C(=O)NCCCN)C[C@@H]3O[C@H]1C[C@H]2[C@H](O[C@@H]3[C@@H](OC)OCCN32)[C@H](C)O1 [Compound 18] | 8.5 nM | 

Row | Compound | EC50 [1] | EC50 (CellTiter-Glo 2.0 luminescence)
21 | COc1cccc2c1C(=O)c1c(O)c3c(c(O)c1C2=O)C[C@@](O)(C(=O)NC1CCC1N)C[C@@H]3O[C@H]1C[C@H]2[C@H](O[C@@H]3[C@@H](OC)OCCN32)[C@H](C)O1 (stereo partly shown) [Compound 19] |  | 4 nM
22 | COc1cccc2c1C(=O)c1c(O)c3c(c(O)c1C2=O)C[C@@](O)(C(=O)NC1CCC1N)C[C@@H]3O[C@H]1C[C@H]2[C@H](O[C@@H]3[C@@H](OC)OCCN32)[C@H](C)O1 (stereo partly shown) [Compound 20] |  | 8.5 nM
23 | COc1cccc2c1C(=O)c1c(O)c3c(c(O)c1C2=O)C[C@@](O)(C(=O)NCc1ccc(N)cc1)C[C@@H]3O[C@H]1C[C@H]2[C@H](O[C@@H]3[C@@H](OC)OCCN32)[C@H](C)O1 [Compound 23] | 0.06 nM | 
24 | COc1cccc2c1C(=O)c1c(O)c3c(c(O)c1C2=O)C[C@@](O)(C(=O)N1CC(N)C1)C[C@@H]3O[C@H]1C[C@H]2[C@H](O[C@@H]3[C@@H](OC)OCCN32)[C@H](C)O1 [Compound 24] | 8.3 nM | 
25 | COc1cccc2c1C(=O)c1c(O)c3c(c(O)c1C2=O)C[C@@](O)(C(=O)N[C@H]1CCCC[C@@H]1N)C[C@@H]3O[C@H]1C[C@H]2[C@H](O[C@@H]3[C@@H](OC)OCCN32)[C@H](C)O1 [Compound 25] | 10.5 nM | 
26 | COc1cccc2c1C(=O)c1c(O)c3c(c(O)c1C2=O)C[C@@](O)(C(=O)N[C@@H]1CCCC[C@H]1N)C[C@@H]3O[C@H]1C[C@H]2[C@H](O[C@@H]3[C@@H](OC)OCCN32)[C@H](C)O1 [Compound 26] | 2.7 nM | 
27 | COc1cccc2c1C(=O)c1c(O)c3c(c(O)c1C2=O)C[C@@](O)(C(=O)NC1CNC1)C[C@@H]3O[C@H]1C[C@H]2[C@H](O[C@@H]3[C@@H](OC)OCCN32)[C@H](C)O1 [Compound 27] | 39 nM | 
28 | COc1cccc2c1C(=O)c1c(O)c3c(c(O)c1C2=O)C[C@@](O)(C(=O)N1CC2(CCNC2)C1)C[C@@H]3O[C@H]1C[C@H]2[C@H](O[C@@H]3[C@@H](OC)OCCN32)[C@H](C)O1 [Compound 28] | 478 nM | 
29 | COc1cccc2c1C(=O)c1c(O)c3c(c(O)c1C2=O)C[C@@](O)(C(=O)N1CCC2(CNC2)C1)C[C@@H]3O[C@H]1C[C@H]2[C@H](O[C@@H]3[C@@H](OC)OCCN32)[C@H](C)O1 [Compound 29] | 90 nM | 
30 | COc1cccc2c1C(=O)c1c(O)c3c(c(O)c1C2=O)C[C@@](O)(C(=O)N1CC2(CNC2)C1)C[C@@H]3O[C@H]1C[C@H]2[C@H](O[C@@H]3[C@@H](OC)OCCN32)[C@H](C)O1 [Compound 30] | 14 nM | 
31 | COc1cccc2c1C(=O)c1c(O)c3c(c(O)c1C2=O)C[C@@](O)(C(=O)NC[C@H]1C[C@@H](N)C1)C[C@@H]3O[C@H]1C[C@H]2[C@H](O[C@@H]3[C@@H](OC)OCCN32)[C@H](C)O1 [Compound 31] | 2.6 nM | 
32 | COc1cccc2c1C(=O)c1c(O)c3c(c(O)c1C2=O)C[C@@](O)(C(=O)NCc1ccc(N)cn1)C[C@@H]3O[C@H]1C[C@H]2[C@H](O[C@@H]3[C@@H](OC)OCCN32)[C@H](C)O1 [Compound 32] | 0.07 nM | 
33 | COc1cccc2c1C(=O)c1c(O)c3c(c(O)c1C2=O)C[C@@](O)(C(=O)N[C@@H]1CC[C@H](N)C1)C[C@@H]3O[C@H]1C[C@H]2[C@H](O[C@@H]3[C@@H](OC)OCCN32)[C@H](C)O1 [Compound 33] | 9.2 nM | 
34 | COc1cccc2c1C(=O)c1c(O)c3c(c(O)c1C2=O)C[C@@](O)(C(=O)N[C@H]1CC[C@@H](N)C1)C[C@@H]3O[C@H]1C[C@H]2[C@H](O[C@@H]3[C@@H](OC)OCCN32)[C@H](C)O1 [Compound 34] | 19 nM | 
35 | COc1cccc2c1C(=O)c1c(O)c3c(c(O)c1C2=O)C[C@@](O)(C(=O)N[C@H]1[C@@H]2CNC[C@@H]21)C[C@@H]3O[C@H]1C[C@H]2[C@H](O[C@@H]3[C@@H](OC)OCCN32)[C@H](C)O1 [Compound 35] | 0.97 nM | 
36 | COc1cccc2c1C(=O)c1c(O)c3c(c(O)c1C2=O)C[C@@](O)(C(=O)NCC1(F)CNC1)C[C@@H]3O[C@H]1C[C@H]2[C@H](O[C@@H]3[C@@H](OC)OCCN32)[C@H](C)O1 [Compound 36] | 0.42 nM | 
37 | COc1cccc2c1C(=O)c1c(O)c3c(c(O)c1C2=O)C[C@@](O)(C(=O)NC[C@H]1CCNC1)C[C@@H]3O[C@H]1C[C@H]2[C@H](O[C@@H]3[C@@H](OC)OCCN32)[C@H](C)O1 [Compound 37] | 8 nM | 
38 | CNCCCNC(=O)[C@]1(O)Cc2c(O)c3c(c(O)c2[C@@H](O[C@H]2C[C@H]4[C@H](O[C@@H]5[C@@H](OC)OCCN54)[C@H](C)O2)C1)C(=O)c1c(OC)cccc1C3=O [Compound 38] | 9.1 nM | 
39 | COc1cccc2c1C(=O)c1c(O)c3c(c(O)c1C2=O)C[C@@](O)(C(=O)NCCCN1CCNCC1)C[C@@H]3O[C@H]1C[C@H]2[C@H](O[C@@H]3[C@@H](OC)OCCN32)[C@H](C)O1 [Compound 39] | 3.8 nM | 
40 | COc1cccc2c1C(=O)c1c(O)c3c(c(O)c1C2=O)C[C@@](O)(C(=O)NCC[C@@H]1CCCN1)C[C@@H]3O[C@H]1C[C@H]2[C@H](O[C@@H]3[C@@H](OC)OCCN32)[C@H](C)O1 [Compound 40] | 4.3 nM | 
